Article PMC10763615, “Identification and engineering of potent cyclic peptides with selective or promiscuous binding through biochemical profiling and bioinformatic data analysis” (RSC Chemical Biology, 2023)
Where two headings read alike, the source gives them in different places. Positions of bridges follow the written chain, without caps; N, C: chain ends. Residues, ends and D or L forms follow the SMILES beside them.

Legend:
Format in all cases: binding
FGF-R4 ECD = biological target: T1, FGF-R4 ECD (Homo sapiens, UniProt P22455); assay: single concentration BLI of crude peptides; conditions: read-out: KD (4)
T1 construct: DNA constructs for the extracellular domain (ECD) of human FGF-; HPC4 (C); made in house; host or cells: HEK 293-6E
T1 sequence (P22455 22-369 limits assumed): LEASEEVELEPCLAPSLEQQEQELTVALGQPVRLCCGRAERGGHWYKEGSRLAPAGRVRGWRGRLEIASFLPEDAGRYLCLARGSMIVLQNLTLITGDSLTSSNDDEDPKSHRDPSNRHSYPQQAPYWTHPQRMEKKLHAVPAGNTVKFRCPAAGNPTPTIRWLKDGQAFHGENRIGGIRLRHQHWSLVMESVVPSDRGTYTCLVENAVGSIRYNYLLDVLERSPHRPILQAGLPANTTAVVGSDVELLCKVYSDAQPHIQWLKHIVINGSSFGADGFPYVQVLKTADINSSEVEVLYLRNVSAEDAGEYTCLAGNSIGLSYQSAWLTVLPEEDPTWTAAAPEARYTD
Method in brief: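 BLI, streptavidin sensors loaded with biotinylated receptor ECD. Single-point: ~1 μM crude peptide, PBS pH7.4/0.05% Tween-20/0.01% BSA; association then dissociation in buffer. KD corrected for UPLC-CAD-determined concentration.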

FGF-R1C ECD = biological target: T2, FGF-R1C ECD (Homo sapiens, UniProt P11362); assay: biochemical; design: DNA constructs for the extracellular domain (ECD) of human FGF-; HPC4 (C); made in house; host or cells: HEK 293-6E
T2 sequence (P11362 22-376 limits assumed): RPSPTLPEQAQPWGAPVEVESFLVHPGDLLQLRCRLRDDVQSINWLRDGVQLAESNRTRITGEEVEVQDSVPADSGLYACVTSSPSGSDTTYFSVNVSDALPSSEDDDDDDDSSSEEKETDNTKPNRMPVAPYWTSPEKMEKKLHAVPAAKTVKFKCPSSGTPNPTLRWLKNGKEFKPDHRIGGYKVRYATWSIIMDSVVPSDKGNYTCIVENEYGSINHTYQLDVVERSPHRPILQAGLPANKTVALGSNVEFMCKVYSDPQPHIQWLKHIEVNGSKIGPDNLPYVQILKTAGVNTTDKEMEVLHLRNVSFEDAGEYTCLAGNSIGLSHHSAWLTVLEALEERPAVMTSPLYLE
Method in brief: (§1)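 Streptavidin biosensors carrying biotinylated FGF receptor ECD were immersed in peptide (~1 μM for crude single-point runs, a concentration series for purified peptides) and then in peptide-free buffer. KD was obtained by fitting the BLI association and dissociation curves.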

FGF-R3C ECD = biological target: T3, FGF-R3C ECD (Homo sapiens, UniProt P22607); assay: biochemical; design: DNA constructs for the extracellular domain (ECD) of human FGF-; HPC4 (C); made in house; host or cells: HEK 293-6E
T3 sequence (P22607 23-375 limits assumed): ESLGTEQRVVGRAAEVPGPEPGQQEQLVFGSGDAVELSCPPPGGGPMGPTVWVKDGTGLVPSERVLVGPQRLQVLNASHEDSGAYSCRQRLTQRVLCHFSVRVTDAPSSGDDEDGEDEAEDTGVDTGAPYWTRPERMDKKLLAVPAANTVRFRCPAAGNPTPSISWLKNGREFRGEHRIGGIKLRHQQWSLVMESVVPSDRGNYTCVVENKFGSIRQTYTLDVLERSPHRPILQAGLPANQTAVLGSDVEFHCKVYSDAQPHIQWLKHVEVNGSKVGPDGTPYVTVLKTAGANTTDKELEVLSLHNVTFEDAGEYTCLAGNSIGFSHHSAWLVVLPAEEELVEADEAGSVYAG
Method in brief: as §1

[1] = crude T18 selection 1 (1:1:1) peptides, single concentration BLI (Table S4)
[2] = crude NNK peptides, single concentration BLI (Table S3)

Structure (SMILES)	Kd (FGF-R4 ECD; [1]) [µM]	Kd (FGF-R1C ECD) [µM]	Kd (FGF-R3C ECD) [µM]	Kd (FGF-R4 ECD; [2]) [µM]
CSCC[C@H](NC(C)=O)C(=O)N[C@H]1CSSC[C@@H](C(=O)NCC(=O)N[C@@H](CO)C(=O)NCC(=O)N[C@@H](CO)C(=O)N[C@@H](CC(=O)O)C(=O)N[C@@H](Cc2ccc(O)cc2)C(=O)N[C@@H](CCCCN)C(=O)N[C@@H](CC(=O)O)C(=O)N[C@@H](CC(=O)O)C(=O)N[C@@H](CC(=O)O)C(=O)N[C@@H](CC(=O)O)C(=O)N[C@@H](CCCCN)C(N)=O)NC(=O)[C@H](C(C)C)NC(=O)[C@H](CCCCN)NC(=O)[C@H](Cc2ccccc2)NC(=O)[C@H](Cc2c[nH]c3ccccc23)NC(=O)[C@H](Cc2ccccc2)NC(=O)[C@H](CCC(=O)O)NC(=O)[C@H](Cc2c[nH]cn2)NC(=O)[C@H](CCC(N)=O)NC(=O)[C@H](CCCCN)NC(=O)[C@H](Cc2ccccc2)NC(=O)[C@H](Cc2c[nH]c3ccccc23)NC(=O)[C@H](Cc2c[nH]c3ccccc23)NC1=O (Ac-MCWWFKQHEFWFKVCGSGSDYKDDDDK-NH2; disulfide 2-15)	0.002	> 10	> 10	
CSCC[C@H](NC(C)=O)C(=O)N[C@H]1CSSC[C@@H](C(=O)NCC(=O)N[C@@H](CO)C(=O)NCC(=O)N[C@@H](CO)C(=O)N[C@@H](CC(=O)O)C(=O)N[C@@H](Cc2ccc(O)cc2)C(=O)N[C@@H](CCCCN)C(=O)N[C@@H](CC(=O)O)C(=O)N[C@@H](CC(=O)O)C(=O)N[C@@H](CC(=O)O)C(=O)N[C@@H](CC(=O)O)C(=O)N[C@@H](CCCCN)C(N)=O)NC(=O)[C@H](CCCCN)NC(=O)[C@H](CC(C)C)NC(=O)[C@H](C(C)C)NC(=O)[C@H](CC(C)C)NC(=O)[C@H](CCC(=O)O)NC(=O)[C@@H]2CCCN2C(=O)[C@H](CCSC)NC(=O)[C@H](Cc2ccccc2)NC(=O)[C@H](Cc2c[nH]c3ccccc23)NC(=O)[C@H](Cc2c[nH]c3ccccc23)NC1=O (Ac-MCWWFMPELVLKCGSGSDYKDDDDK-NH2; disulfide 2-13)		> 10	> 10	> 10
CSCC[C@H](NC(C)=O)C(=O)N[C@H]1CSSC[C@@H](C(=O)NCC(=O)N[C@@H](CO)C(=O)NCC(=O)N[C@@H](CO)C(=O)N[C@@H](CC(=O)O)C(=O)N[C@@H](Cc2ccc(O)cc2)C(=O)N[C@@H](CCCCN)C(=O)N[C@@H](CC(=O)O)C(=O)N[C@@H](CC(=O)O)C(=O)N[C@@H](CC(=O)O)C(=O)N[C@@H](CC(=O)O)C(=O)N[C@@H](CCCCN)C(N)=O)NC(=O)[C@H](CC(C)C)NC(=O)[C@H](CCCNC(=N)N)NC(=O)[C@H](CCC(=O)O)NC(=O)[C@H](Cc2c[nH]c3ccccc23)NC(=O)[C@H](Cc2ccc(O)cc2)NC(=O)[C@H](Cc2ccccc2)NC(=O)[C@H](CO)NC(=O)[C@H](Cc2c[nH]cn2)NC(=O)[C@H](CCC(N)=O)NC(=O)[C@H](CC(=O)O)NC(=O)[C@H](Cc2ccc(O)cc2)NC(=O)[C@H](Cc2c[nH]c3ccccc23)NC1=O (Ac-MCWYDQHSFYWERLCGSGSDYKDDDDK-NH2; disulfide 2-15)	> 10	> 10	> 10	
CC[C@H](C)[C@@H]1NC(=O)[C@H](CC(=O)O)NC(=O)[C@H](Cc2ccc(O)cc2)NC(=O)[C@@H](NC(=O)[C@H](CCSC)NC(C)=O)CSSC[C@@H](C(=O)NCC(=O)N[C@@H](CO)C(=O)NCC(=O)N[C@@H](CO)C(=O)N[C@@H](CC(=O)O)C(=O)N[C@@H](Cc2ccc(O)cc2)C(=O)N[C@@H](CCCCN)C(=O)N[C@@H](CC(=O)O)C(=O)N[C@@H](CC(=O)O)C(=O)N[C@@H](CC(=O)O)C(=O)N[C@@H](CC(=O)O)C(=O)N[C@@H](CCCCN)C(N)=O)NC(=O)[C@H](Cc2c[nH]cn2)NC(=O)[C@H](Cc2ccc(O)cc2)NC(=O)[C@H](C(C)C)NC(=O)[C@H]([C@@H](C)O)NC(=O)[C@H]([C@@H](C)CC)NC(=O)[C@H](Cc2ccc(O)cc2)NC(=O)[C@H](CC(=O)O)NC(=O)[C@H](Cc2ccccc2)NC(=O)[C@H](C(C)C)NC1=O (Ac-MCYDIVFDYITVYHCGSGSDYKDDDDK-NH2; disulfide 2-15)	0.021	> 10	> 10	
CC[C@H](C)[C@@H]1NC(=O)[C@H](CCC(=O)O)NC(=O)[C@H](CC(=O)O)NC(=O)[C@H](CCC(=O)O)NC(=O)[C@H](Cc2ccc(O)cc2)NC(=O)[C@@H](NC(=O)[C@H](CCSC)NC(C)=O)CSSC[C@@H](C(=O)NCC(=O)N[C@@H](CO)C(=O)NCC(=O)N[C@@H](CO)C(=O)N[C@@H](CC(=O)O)C(=O)N[C@@H](Cc2ccc(O)cc2)C(=O)N[C@@H](CCCCN)C(=O)N[C@@H](CC(=O)O)C(=O)N[C@@H](CC(=O)O)C(=O)N[C@@H](CC(=O)O)C(=O)N[C@@H](CC(=O)O)C(=O)N[C@@H](CCCCN)C(N)=O)NC(=O)[C@H](Cc2ccc(O)cc2)NC(=O)[C@H](CC(C)C)NC(=O)[C@H](C(C)C)NC(=O)[C@H](CCCCN)NC(=O)[C@H](Cc2ccc(O)cc2)NC(=O)[C@H](CC(C)C)NC(=O)[C@H](Cc2c[nH]c3ccccc23)NC1=O (Ac-MCYEDEIWLYKVLYCGSGSDYKDDDDK-NH2; disulfide 2-15)	0.009	> 10	> 10	
CC[C@H](C)[C@@H]1NC(=O)[C@H](Cc2c[nH]cn2)NC(=O)[C@H](CCCCN)NC(=O)[C@H](Cc2ccc(O)cc2)NC(=O)[C@@H](NC(=O)[C@H](CCSC)NC(C)=O)CSSC[C@@H](C(=O)NCC(=O)N[C@@H](CO)C(=O)NCC(=O)N[C@@H](CO)C(=O)N[C@@H](CCC(=O)O)C(=O)N[C@@H](CCC(=O)O)C(=O)NCC(=O)N[C@@H](CO)C(=O)NCC(=O)N[C@@H](CO)C(=O)N[C@@H](CC(=O)O)C(=O)N[C@@H](Cc2ccc(O)cc2)C(=O)N[C@@H](CCCCN)C(=O)N[C@@H](CC(=O)O)C(=O)N[C@@H](CC(=O)O)C(=O)N[C@@H](CC(=O)O)C(=O)N[C@@H](CC(=O)O)C(=O)N[C@@H](CCCCN)C(N)=O)NC(=O)[C@H](CC(C)C)NC(=O)[C@H](CCCCN)NC(=O)[C@H](CCC(N)=O)NC(=O)[C@H]([C@@H](C)CC)NC(=O)[C@H](CCCCN)NC(=O)[C@H](Cc2ccc(O)cc2)NC(=O)[C@H](Cc2c[nH]c3ccccc23)NC(=O)[C@H](CC(C)C)NC1=O (Ac-MCYKHILWYKIQKLCGSGSEEGSGSDYKDDDDK-NH2; disulfide 2-15)	0.001	0.033	> 10	
CSCC[C@H](NC(C)=O)C(=O)N[C@H]1CSSC[C@@H](C(=O)NCC(=O)N[C@@H](CO)C(=O)NCC(=O)N[C@@H](CO)C(=O)N[C@@H](CC(=O)O)C(=O)N[C@@H](Cc2ccc(O)cc2)C(=O)N[C@@H](CCCCN)C(=O)N[C@@H](CC(=O)O)C(=O)N[C@@H](CC(=O)O)C(=O)N[C@@H](CC(=O)O)C(=O)N[C@@H](CC(=O)O)C(=O)N[C@@H](CCCCN)C(N)=O)NC(=O)[C@H](Cc2c[nH]c3ccccc23)NC(=O)[C@H](CCC(N)=O)NC(=O)[C@H](CCCCN)NC(=O)[C@H](Cc2c[nH]c3ccccc23)NC(=O)[C@H](CC(C)C)NC(=O)[C@H](CC(C)C)NC(=O)[C@H](Cc2ccccc2)NC(=O)[C@H](CC(C)C)NC(=O)[C@H](CCCCN)NC(=O)[C@H](Cc2ccc(O)cc2)NC1=O (Ac-MCYKLFLLWKQWCGSGSDYKDDDDK-NH2; disulfide 2-13)		> 10	> 10	> 10
